Source: article PMC6749236, “Synthesis of Novel 2-(Het)arylpyrrolidine Derivatives and Evaluation of Their Anticancer and Anti-Biofilm Activity” (Molecules, 2019)
“And” between values parts separate entries of the source, which are not always exact repeats. Identical values can stand only once. Marks after values point to notes of the source that are not given here.

Legend:
M-Hela = assay: Cytotoxicity assay (Cytell Cell Imaging, DAPI/propidium iodide), cancer cell line; type: cell-based; conditions: Homo sapiens, M-HeLa, read-out: IC50 Cancer Cell Line M-Hela
Chang liver cell line = assay: Cytotoxicity assay (Cytell Cell Imaging), normal cell line; type: cell-based; conditions: Homo sapiens, read-out: IC50 Normal Cell Line Chang Liver
[1] = system: Acinetobacter calcoaceticus VKPM B-10353; assay: Biofilm formation, crystal violet assay; type: cell-based; conditions: A. calcoaceticus VKPM B-10353; for Biofilm Formation: control = 100%; for Biofilm formation with respect to control, over the investigated concentrations: 1 × 10^−9–1 × 10^−5 M
Description: (§1) Bacterial strains and cultivation conditions. For the detection of biofilms, formation strains Vibrio aquamarinus DSM 26054 and Acinetobacter calcoaceticus VKPM B-10353 were used. These strains form biofilms, making them useful for studying biofilms.
(§2) The bacterial strains Acinetobacter calcoaceticus VKPM B-10353, E. coli MG1655 (pRecA-lux), and E. coli MG1655 (pSoxS-lux) were cultivated in Luria–Bertani (LB) medium under constant shaking to early exponential phase at 37 °C. Cells were used immediately for stress induction tests. One hundred micrograms of ampicillin per milliliter were added into LB medium at cultivation of E. coli MG1655 (pRecA-lux) and E. coli MG1655 (pSoxS-lux). Strain V. aquamarinus DSM 26054 was grown in LB medium supplemented with 3% NaCl.
(§3) The test compounds were dissolved in DMSO to the concentration of 1 × 10^−2 M. Then, they were diluted with ethanol. The control solutions were analogous dilutions of DMSO in ethanol. The tested compounds were also compared with the standard antibiotic azithromycin. Azithromycin was dissolved in DMSO to the concentration of 5 × 10^−3 M and then diluted with deionized water.
(§4) Test system for evaluation of biofilms production. To quantify the formation of biofilms, the crystal violet assay was used, with some modifications. The necessary concentrations of the test compounds were prepared as described above.
(§5) V. aquamarinus DSM 26054 was cultivated for 24 h in LB medium supplemented with 3% NaCl in the Innova 40R shaker incubator (New Brunswick Scientific, USA) at 25 °C and 200 rpm. A. calcoaceticus VKPM B-10353 was cultivated for 24 h in LB medium in the Innova 40R shaker incubator (New Brunswick Scientific, Enfield, CT, USA) at 30 °C and 200 rpm. Then, the suspensions of the daily culture of V. aquamarinus DSM 26054 and A. calcoaceticus VKPM B-10353 were diluted with LB medium supplemented with 3% NaCl to the density of 1 × 10^8 cells/mL.
(§6) The resulting suspension (180 μL) was added to the wells of a polystyrene microplate (Nuova Aptaca, Canelli, Italy). To some of the wells, 20 μL of the test substances at various concentrations were added. Since solvents used could also influence the biofilm formation, 20 μL of the appropriate solvent was added to the other part of the wells at same dilutions (control). Six replicates were done for each treatment and control. The microplate was covered with a lid and wrapped with Parafilm (Bemis Company, Inc., Oshkosh, WI, USA).
(§7) After incubation at 25 °C for 72 h, biofilms were stained. The contents in the wells were removed by means of a dispenser. The wells were then carefully washed three times with 250 μL of sterile saline. The microplates were shaken to remove all non-adherent bacteria. Biofilms were fixed with 200 μL of 96% ethanol for 15 min. After the microplates had dried in air, 200 μL of 0.5% crystal violet was introduced into the wells. After 10 min, the dye was removed. The excess dye was removed by washing with water three times. After the microplates were air-dried, the dye in the wells bound to biofilms was dissolved with 200 μL of 96% ethanol. The extraction level (absorption) of crystal violet by ethanol was measured after 60 minutes at a wavelength of 570 nm using a FLUOstar Omega microplate reader (BMG Labtech, Offenburg, Germany) in optical density units (OD570). The intensity of biofilm formation directly corresponds to the intensity of staining of the contents of the wells with the dye. Biofilm formation was determined by the difference between the mean OD readings obtained in the presence of compounds and the control.
(§8) Each experiment was performed in triplicate. The values were expressed as mean + SD. Student’s t-test was used to compare these values. Differences were considered statistically significant at p < 0.05.

[2] = system: Vibrio aquamarinus DSM 26054; assay: Biofilm formation, crystal violet assay; type: cell-based; conditions: V. aquamarinus DSM 26054, control = 100%
Description: as §1, §2, §3, §4, §5, §6, §7, §8

[3] = system: Escherichia coli MG1655 (pRecA-lux); assay: Genotoxicity, bacterial lux-biosensor; type: cell-based
Description: (§9) E. coli MG1655 (pRecA-lux) was used for the evaluation of the genotoxicity of the synthesized compounds. The biosensor with the PrecA promotor fixes the presence of the factors causing damage of DNA in a cell. The biosensor E. coli MG1655 (pSoxS-lux) was used for the evaluation of prooxidant activity. The biosensor with the PsoxS promoter fixes the production of superoxide anion and NO [75]. Bioluminescent strains were obtained by the transformation of E. coli MG1655 by hybrid plasmids pRecA-lux, pSoxS-lux. The gene cassette luxCDABE Photorhabdus luminescens under the control PrecA promoters was used in this biosensor. This plasmid was created on the basis of pBR322 and contained a selective marker of ampicillin resistance (Amp gene). The strains were kindly furnished by Manukhov I.V., Federal State Unitary Enterprise “GosNIIGenetika”).
as §2
(§10) Biosensors assay procedure. The detailed protocol of toxicity testing by means of a bacterial lux-biosensors is described in the article.
(§11) Calculation. The criterion of toxic influence was bioluminescence intensity change of the test object in the researched sample in comparison with the control sample.
(§12) The induction factor (I) was defined as the relation of luminescence intensity of a lux-biosensor suspension containing tested sample (Lc) to the luminescence intensity of a lux-biosensor control suspension (Lk): I = Lc/Lk.
If at significant differences from control induction factor values were ≤2, the detected genotoxic effect was evaluated as “weak”, if they were in the range from 2 to 10 as “medium”, and above 10 as “strong”. All the experiments were carried out three times independently.
(§13) Difference reliability of bioluminescence in experiment from control value was estimated by t-criterion with the help of Excel software. The conclusions about sample toxicity were made at p < 0.05.

[4] = system: E. coli MG1655 (pSoxS-lux); assay: Prooxidant activity, bacterial lux-biosensor; type: cell-based, Escherichia coli
Description: as §9, §2, §10, §11, §12, §13

P388 murine leukemia = assay: In vivo anti-tumor activity, i.p. implanted leukemia; set-up: species or system BDF1 hybrid male mice; conditions: for ILS / MST ± SD: P388; for Survival: day 60
Description: Animals. In vivo experiments were performed using the BDF1 hybrid male mice of 22–24 g weight. The experimental animals were caged in a standard vivarium in 12 h light conditions with free access to food and water. All manipulations with the animals were performed in accordance with the solutions of the Commission on Bioethics of the Institute of Problems of Chemical Physics, Russian Academy of Sciences (IPCP RAS).
Anti-tumor activity. The tumors were transplanted intraperitoneally (i.p.) in accordance with a standard procedure inoculum: 10^6 tumor cells in isotonic solution of NaCl, V = 0.2 cm^3 (leukemia P388). Original compounds were injected intraperitoneally as aqueous solution. Doses from 18 to 83 mg/kg/day and the mode of administration on days 1, 5, and 9 after transplantation were used. In each experiment, a single group of tumor-bearing animals not injected with the compounds served as the control group. Each group consisted of six mice. The animals were observed daily for survival for a minimum of 60 days. The efficacy of the therapy against leukemia (defined as increase in lifespan—ILS) was assessed as the percentage of the median survival time (MST) of the treated group (t) to that of the control group (c): ILS(%) = (MSTt/MSTc) × 100.
Statistics. The experiments were carried out in triplicate. The data are presented in the form X ± SD (mean ± standard deviation). The significance of the differences between the groups was assessed using Student’s t-test. Values of p < 0.05 were considered statistically significant. The data were processed statistically using GraphPad Prism.

[5] = 18 mg/kg/day i.p., days 1, 5, 9
[6] = 26 mg/kg/day i.p., days 1, 5, 9
[7] = 40 mg/kg/day i.p., days 1, 5, 9
[8] = 55 mg/kg/day i.p., days 1, 5, 9
[9] = 83 mg/kg/day i.p., days 1, 5, 9

## O=C(Nc1ccc(F)cc1)N1CCCC1c1cc2c(cc1O)OCO2 (centres unmarked) [5e, N-(4-Fluorophenyl)-2-(6-hydroxybenzo[d][1,3]dioxol-5-yl)pyrrolidine-1-carboxamide]
M-Hela
  IC50: > 100 µM
Chang liver cell line
  IC50: > 100 µM
other
  melting point: 184 to 185 °C

## O=[N+]([O-])c1c(Cl)cc2c(no[n+]2[O-])c1Nc1cccc(O)c1 [compound 4, 6-Chloro-4-((3-hydroxyphenyl)amino)-5-nitrobenzo[c][1,2,5]oxadiazole 1-oxide]
[1]; 1 × 10^−5 M
  Biofilm Formation: 149.22* %
[1]; 1 × 10^−6 M
  Biofilm Formation: 97.99%
[1]; 1 × 10^−7 M
  Biofilm Formation: 78.63 * %
[1]; 1 × 10^−8 M
  Biofilm Formation: 62.12 * %
[1]; 1 × 10^−9 M
  Biofilm Formation: 86.67 * %
[1]
  Biofilm formation with respect to control, over the investigated concentrations: both suppressing and stimulating
[2]; 1 × 10^−5 M
  Biofilm Formation: 96.57%
[2]; 1 × 10^−6 M
  Biofilm Formation: 43.56 * %
[2]; 1 × 10^−7 M
  Biofilm Formation: 11.34 * %
[2]; 1 × 10^−8 M
  Biofilm Formation: 9.31 * %
[2]; 1 × 10^−9 M
  Biofilm Formation: 66.58%
[3]; 10^−9–10^−5 M, with and without S9
  DNA-damaging property, in words: do not belong to the class of DNA-damaging substances
[3]; with metabolic activation (+S9), 10^−5 M
  Genotoxicity (induction factor, I): 1.11 ± 0.01
[3]; with metabolic activation (+S9), 10^−6 M
  Genotoxicity (induction factor, I): 1.28 ± 0.04
[3]; with metabolic activation (+S9), 10^−7 M
  Genotoxicity (induction factor, I): 1.18 ± 0.01
[3]; with metabolic activation (+S9), 10^−8 M
  Genotoxicity (induction factor, I): 1.11 ± 0.02
[3]; with metabolic activation (+S9), 10^−9 M
  Genotoxicity (induction factor, I): 1.19 ± 0.01
[3]; without metabolic activation (-S9), 10^−5 M
  Genotoxicity (induction factor, I): 1.10 ± 0.00
[3]; without metabolic activation (-S9), 10^−6 M
  Genotoxicity (induction factor, I): 1.27 ± 0.01
[3]; without metabolic activation (-S9), 10^−7 M
  Genotoxicity (induction factor, I): 1.14 ± 0.02
[3]; without metabolic activation (-S9), 10^−8 M
  Genotoxicity (induction factor, I): 1.27 ± 0.07
[3]; without metabolic activation (-S9), 10^−9 M
  Genotoxicity (induction factor, I): 1.21 ± 0.04
[4]; 10^−5 M
  Prooxidant activity (induction factor): 1.64 ± 0.04
[4]; 10^−6 M
  Prooxidant activity (induction factor): 1.54 ± 0.07
[4]; 10^−7 M
  Prooxidant activity (induction factor): 1.74 ± 0.14
[4]; 10^−8 M
  Prooxidant activity (induction factor): 2.08 ± 0.05
[4]; 10^−9 M
  Prooxidant activity (induction factor): 1.85 ± 0.10
[4]; 10^−9–10^−8 M and 10^−7–10^−5 M
  effect of superoxide-anion radical or NO level increase, in words: weak effect

## CN(C)CCNC(=O)N1CCCC1c1c(O)c2ccccc2oc1=O.O=C(O)C(F)(F)F (centres unmarked) [8h, 2-(2-(4-Hydroxy-2-oxo-2H-chromen-3-yl)pyrrolidine-1-carboxamido)-N,N-dimethylethan-1-aminium 2,2,2-trifluoroacetate]
M-Hela
  IC50: > 100 µM
Chang liver cell line
  IC50: > 100 µM
P388 murine leukemia; [5]
  ILS: 93%
  MST ± SD: 19.3 ± 8.1 days
P388 murine leukemia; 18 mg/kg/day
  Survival: 17%
P388 murine leukemia; [6]
  ILS: 107%
  MST ± SD: 20.7 ± 8.0 days
P388 murine leukemia; 26 mg/kg/day
  Survival: 17%
P388 murine leukemia; [7]
  ILS: 32%
  MST ± SD: 13.2 ± 1.6 days
P388 murine leukemia; 40 mg/kg/day
  Survival: 0%
P388 murine leukemia; [8]
  ILS: 98%
  MST ± SD: 19.8 ± 8.1 days
P388 murine leukemia; 55 mg/kg/day
  Survival: 17%
P388 murine leukemia; [9]
  ILS: 162%
  MST ± SD: 26.2 ± 10.7 days
P388 murine leukemia; 83 mg/kg/day
  Survival: 33%
P388 murine leukemia; P388, dose range 18–83 mg/kg/day i.p., days 1, 5, 9
  antitumor (anti-leukemic) activity, in words: pronounced anti-leukemic activity

## CC[C@H]1OC(=O)[C@H](C)[C@@H](O[C@H]2C[C@@](C)(OC)[C@@H](O)[C@H](C)O2)[C@H](C)[C@@H](O[C@@H]2O[C@H](C)C[C@H](N(C)C)[C@H]2O)[C@](C)(O)C[C@@H](C)CN(C)[C@H](C)[C@@H](O)[C@]1(C)O [Azithromycin, reference compound]
[1]; 1 × 10^−5 M
  Biofilm Formation: 101.79%
[1]; 1 × 10^−6 M
  Biofilm Formation: 106.07%
[1]; 1 × 10^−7 M
  Biofilm Formation: 105.71%
[1]; 1 × 10^−8 M
  Biofilm Formation: 96.07%
[1]; 1 × 10^−9 M
  Biofilm Formation: 95.00%
[1]
  Biofilm formation with respect to control, over the investigated concentrations: not detected
[2]; 1 × 10^−5 M
  Biofilm Formation: 81.5% and 81.50 * %
[2]; 1 × 10^−6 M
  Biofilm Formation: 103.80%
[2]; 1 × 10^−7 M
  Biofilm Formation: 99.39%
[2]; 1 × 10^−8 M
  Biofilm Formation: 102.43%
[2]; 1 × 10^−9 M
  Biofilm Formation: 103.42%

## Cc1cc(O)c(C2CCCN2C(=O)Nc2ccc(Br)cc2)c(=O)o1 (centres unmarked) [7d, N-(4-Bromophenyl)-2-(4-hydroxy-6-methyl-2-oxo-2H-pyran-3-yl)pyrrolidine-1-carboxamide]
M-Hela
  IC50: > 100 µM
Chang liver cell line
  IC50: > 100 µM
